Results as given in patent publication US20080107757A1, “Sophorae Subprostratae Radix Extract for Prevention and Treatment of Respiratory Diseases” (priority 2004, published 2008).

Assays:
[1] = test system: guinea pig; assay: Antitussive effect, citric acid aerosol-induced cough; type: in vivo
Method: The method used was the method by M. H. Boskabady et al. (journal of Entnopharmacology 97, 2005, 79-82) with a bit of modifications.
A Hartley male guinea pig (450˜500 g, SLC, Japan) was orally administered with a drug. 1 hr after the administration, the guinea pig was placed in Double Chamber Plethysmograph Box (HSE, Germany) installed with plethysmometer and stabilized by allowing a 5 min of time for adaptation. After the stabilization, 0.6M citric acid was sprayed to the guinea pig for 7 min in the form of aerosol by preparing a compressed air under high pressure. The guinea pig was observed continuously by a trained observer and the number of coughs induced by the above spray of citric acid aerosol was measured by using a microphone and a speaker. The coughs were distinguished from a normal sneeze due to its particular signs such as a peculiar and high sound with its mouth open, movement of abdomen, and an instant change in air flow.

[2] = test system: Phosphodiesterase 4 (PDE4); assay: Inhibition of phosphodiesterase 4 (PDE4) activity, human U937 cells, [3H]cAMP; type: biochemical; settings: positive control
Method: Human U937 cells were stabilized in the mixed solution comprising 50 mM Tris-HCl and 5 mM MgCl2 (pH 7.5) at 25° C. Sophorae Radix extract and 1.01 μM of ([3H]cAMP+cAMP) as a base material were combined together and allowed to react for 20 min to produce adenosine.

[3] = test system: sensitized guinea pig; assay: Inhibition of airway contraction (in vivo), OVA aerosol bronchospasm, airway resistance by plethysmograph
Method: To evaluate the inhibitory effect of Sophorae Radix extract prepared in Preparation Examples 1-3 against airway contraction, experiments were performed as described below by exposing antigens to a sensitized guinea pig and the results are shown in Table 2.
A Hartely male guinea pig(400-450 g, SLC, Japan) was sensitized by intravenously injecting 1.5 mL/kg of anti-ovalbumin anti-serum. 48 hrs after the sensitization, the guinea pig was administered with a drug orally. In 30 min, the guinea pig was pretreated by injecting 10 mg/kg of pyrilamine maleate, 10 mg/kg of indomethacin, and 0.1 mg/kg of propranolol subcutaneously, respectively. Then, the guinea pig was placed in Double Chamber Plethysmograph Box(HSE, Germany) installed with plethysmometer for measuring various respiratory indices and measured basic airway resistance values. 30 min after the pretreatment, 1% OVA was nebulized for 2 min in the form of aerosol by preparing a compressed air under high pressure. Airway resistance was measured for 30 min as an indicator of bronchospasm.

COc1ccc2c(c1)[C@]13CCCC[C@@H]1[C@H](C2)N(C)CC3 [Dextromethorphan]
Cough ([1]; 50 mg/kg oral): 11.1 ± 2.5 (N = 7) | Inhibition (%) of cough ([1]; 50 mg/kg oral): 9% | Cough ([1]; 100 mg/kg oral): 4.5 ± 2.6 (N = 10) | Inhibition (%) of cough ([1]; 100 mg/kg oral): 63%

CC(C)Cn1c(=O)n(C)c(=O)c2[nH]cnc21 [IBMX, 3-isobutyl-1-methylxanthine]
IC50 [2]: 20.7 µM

CC(C)(O)c1ccccc1CC[C@@H](SCC1(CC(=O)O)CC1)c1cccc(/C=C/c2ccc3ccc(Cl)cc3n2)c1 [Montelukast]
Inhibition Rate of Bronchospasm (%) ([3]; 10 mg/kg oral): 45% | Inhibition Rate of Bronchospasm (%) ([3]; 40 mg/kg oral): 75% | Cough ([1]; 10 mg/kg oral): 11.1 ± 2.9 (N = 9) | Inhibition (%) of cough ([1]; 10 mg/kg oral): 10% | Cough ([1]; 40 mg/kg oral): 11.4 ± 4.3 (N = 7) | Inhibition (%) of cough ([1]; 40 mg/kg oral): 7%
